Data from publication PMC9338265, “Pathogen-selective killing by guanylate-binding proteins as a molecular mechanism leading to inflammasome signaling” (Nature Communications, 2022).
Non-standard residues stand in square brackets, D forms with d. No end group written: not given here. *: point of attachment. FITC = O=C1OC2(c3ccc(O)cc3Oc3cc(O)ccc32)c2ccc(NC(=S)*)cc21; Ahx = NCCCCCC(=O)O

B1: mGBP1 (protein, UniProt Q01514 1-589, looked up)
Guanylate-binding protein 1: MASEIHMSEPMCLIENTEAQLVINQEALRILSAITQPVVVVAIVGLYRTGKSYLMNKLAGKRTGFSLGSTVQSHTKGIWMWCVPHPKKAGQTLVLLDTEGLEDVEKGDNQNDCWIFALAVLLSSTFIYNSIGTINQQAMDQLHYVTELTDLIKSKSSPDQSDVDNSANFVGFFPIFVWTLRDFSLDLEFDGESITPDEYLETSLALRKGTDENTKKFNMPRLCIRKFFPKRKCFIFDRPGDRKQLSKLEWIQEDQLNKEFVEQVAEFTSYIFSYSGVKTLSGGITVNGPRLKSLVQTYVSAICSGELPCMENAVLTLAQIENSAAVQKAITYYEEQMNQKIHMPTETLQELLDLHRTCEREAIEVFMKNSFKDVDQKFQEELGAQLEAKRDAFVKKNMDMSSAHCSDLLEGLFAHLEEEVKQGTFYKPGGYYLFLQRKQELEKKYIQTPGKGLQAEVMLRKYFESKEDLADTLLKMDQSLTEKEKQIEMERIKAEAAEAANRALAEMQKKHEMLMEQKEQSYQEHMKQLTEKMEQERKELMAEQQRIISLKLQEQERLLKQGFQNESLQLRQEIEKIKNMPPPRSCTIL

Key:
[1] = test system: N. meningitidis; test: Bacterial viability assay (CFU or O.D.); type: cell-based, Neisseria meningitidis; details: 6 h
[2] = test system: F. novicida
[3] = test system: primary mouse BMDMs; test: Cytotoxicity (SYTOX incorporation, LDH release); details: 10 µg/ml; IncuCyte live imaging; LDH after 24 h
[4] = test system: African green monkey kidney cells Vero; test: Cytotoxicity (SYTOX incorporation, LDH release); details: 10 µg/ml; IncuCyte live imaging; LDH after 24 h
[5] = test system: human embryonic kidney cells HEK293; test: Cytotoxicity (SYTOX incorporation, LDH release); details: 10 µg/ml; IncuCyte live imaging; LDH after 24 h
[6] = test system: human intestinal epithelial cells HT29; test: Cytotoxicity (SYTOX incorporation, LDH release); details: 10 µg/ml; IncuCyte live imaging; LDH after 24 h
[7] = test system: F. novicida; type: cell-based, Francisella novicida
[8] = test system: E. coli; test: Peptide and protein binding assay with SYTOX staining; type: cell-based, Escherichia coli
[9] = test system: N. meningitidis; test: as above; type: cell-based, Neisseria meningitidis; details: for Localization to and killing of N. meningitidis (SYTOX): 10 µg/mL FITC-peptide, 1 h or 6 h
[10] = test system: F. novicida; type: binding, Francisella novicida
[11] = test system: E. coli; test: Bacterial viability assay (CFU); type: cell-based, Escherichia coli; details: 6 h
[12] = test system: F. novicida; type: cell-based, Francisella novicida; remark: listed apart in the source
[13] = test system: F. novicida; type: cell-based, Francisella novicida; remark: listed apart in the source
[14] = test system: isogenic lpxA mutant of N. meningitidis, which lacks LOS; test: Bacterial viability assay (O.D.); type: cell-based, Neisseria meningitidis; details: mGBP1 protein at 0.4, 4 or 40 µM, 6 h; mutant lacking LOS

Row | Molecule | Viability of F. novicida (percentage of CFU in relation to solvent control) [2] | Cytotoxicity, SYTOX incorporation or LDH release, BMDMs [3] | Cytotoxicity, SYTOX incorporation or LDH release, Vero [4] | Cytotoxicity, SYTOX incorporation or LDH release, HEK293 [5] | Cytotoxicity, SYTOX incorporation or LDH release, HT29 [6] | SYTOX positive F. novicida, flow cytometry plot [12] [%] | also measured
1 | FYHTGKSYLMNKLAGKQKGFSL [GBP1^46–67] | little or no antimicrobial activity | – | – | – | – | – | Viability of N. meningitidis (percentage of CFU in relation to solvent control) ([1]; peptide at 10 µg/ml): little or no antimicrobial activity
2 | LDILSAIQNPVVVVAIVGFYHTGKSYLMNKLAGKQKGFSL [GBP1^28–67] | – | None of the peptides exhibited cytotoxicity | None of the peptides exhibited cytotoxicity | None of the peptides exhibited cytotoxicity | None of the peptides exhibited cytotoxicity | – | half maximal inhibitory concentration (IC50), viability of F. novicida ([2]; 6 h): 5.04 µg/mL
3 | {FITC}-[Ahx]LDILSAIQNPVVVVAIVGFYHTGKSYLMNKLAGKQKGFSL [FITC-GBP1^28–67] | – | – | – | – | – | – | Localization to bacteria and uptake of SYTOX, F. novicida [7]: localized to and induced uptake of SYTOX in F. novicida; Localization to bacteria and uptake of SYTOX, E. coli ([8]; 10 µg/mL FITC-peptide, 1 h or 6 h): this did not occur with E. coli; Localization to and killing of N. meningitidis (SYTOX) [9]: localized to and killed N. meningitidis; Binding to F. novicida exposed to NaCl, saponin or sarcosyl before addition of peptide [10]: did not impair the binding; FITC signal remaining on F. novicida already bound to peptide after exposure to NaCl, saponin or sarcosyl [10]: loss of FITC signal
4 | RRWVRRVRRWVRRVVRVVRRWVRR [WLBU2, reference compound] | exhibited, in a dose-dependent manner, antibacterial activity | – | – | – | – | 90.7 | Viability of E. coli (percentage of CFU in relation to solvent control) ([11]; peptide at 0.1, 1 or 10 µg/ml): led to death of the bacteria; Uptake of SYTOX by F. novicida, quantification by flow cytometry [12]: induced a significant uptake of SYTOX; Morphology of F. novicida by SEM and TEM [13]: apoptosis-like blebbing and apoptosis-like bodies
5 | VVVVAIVGFYHTGKSYLMNKLAGKQKGFSL [GBP1^38–67] | little or no antimicrobial activity | – | – | – | – | – | Viability of N. meningitidis (percentage of CFU in relation to solvent control) ([1]; peptide at 10 µg/ml): little or no antimicrobial activity
6 | LLKQGFQNESLQLRQEIEKI [GBP1^558–577] | only GBP1^28–67 and WLBU2 exhibited | None of the peptides exhibited cytotoxicity | None of the peptides exhibited cytotoxicity | None of the peptides exhibited cytotoxicity | None of the peptides exhibited cytotoxicity | 4.7 | –
7 | LDILSAIQNPV [GBP1^28–38] | killed F. novicida and N. meningitidis similar to that observed for GBP1^28–67 | – | – | – | – | – | Viability of E. coli (percentage of CFU in relation to solvent control) ([11]; peptide at 10 µg/ml): unable to kill E. coli; Viability of N. meningitidis (percentage of CFU in relation to solvent control) ([1]; peptide at 10 µg/ml): killed F. novicida and N. meningitidis similar to that observed for GBP1^28–67
8 | {FITC}-[Ahx]KLIKLLDRLASRSVS [FITC-control peptide, reference compound] | – | – | – | – | – | – | Localization to and killing of N. meningitidis (SYTOX) [9]: this did not occur
9 | GTDENTKKFNMPRLCIRKFFPKRKCFIFDR [GBP1^209–238] | only GBP1^28–67 and WLBU2 exhibited | None of the peptides exhibited cytotoxicity | None of the peptides exhibited cytotoxicity | None of the peptides exhibited cytotoxicity | None of the peptides exhibited cytotoxicity | 9.2 | –
10 | TFYKPGGYYLFLQRKQELEKKYIQTPGKG [GBP1^424–452] | only GBP1^28–67 and WLBU2 exhibited | None of the peptides exhibited cytotoxicity | None of the peptides exhibited cytotoxicity | None of the peptides exhibited cytotoxicity | None of the peptides exhibited cytotoxicity | 11.4 | –
11 | IRILEQIAQPLVVVAIVGLYRTGKSYLMNRLAGRNHGFSL [GBP3^22–61] | bacterial killing in a dose-dependent manner | – | – | – | – | – | Morphology of F. novicida by SEM and TEM [13]: bacterial membrane damage and bacteriolysis of F. novicida
12 | B1 | killed F. novicida in a dose-dependent manner | – | – | – | – | – | Viability of N. meningitidis (percentage of CFU in relation to solvent control) ([1]; mGBP1 protein at 0.4, 4 or 40 µM): killed N. meningitis in a dose-dependent manner; Viability of WT N. meningitidis (percentage of O.D. in relation to solvent control) ([1]; mGBP1 protein at 0.4, 4 or 40 µM, WT strain): can kill both WT and ΔlpxA mutant strains; Viability of N. meningitidis ΔlpxA mutant (percentage of O.D. in relation to solvent control) [14]: can kill both WT and ΔlpxA mutant strains; Localization to bacteria and uptake of SYTOX, F. novicida [7]: localized to and induced uptake of SYTOX in F. novicida; Localization to bacteria and uptake of SYTOX, E. coli ([8]; 40 µM mGBP1 protein, 6 h): this did not occur with E. coli; Localization to bacteria and uptake of SYTOX, N. meningitidis ([9]; 40 µM mGBP1, 6 h): localized to N. meningitidis, resulting in the uptake of SYTOX; Morphology of F. novicida by SEM [13]: disruption of the membrane integrity, membrane rupture, and expulsion of intracellular content
